Converted amounts (≈) assume the structure as drawn. Where two headings read alike, the source gives them in different places.
Columns and labels:
[1] = system: Bacillus subtilis #10707; assay: Minimum growth inhibitory concentration by agar dilution method; assay type: cell-based; conditions: for Minimum growth inhibitory concentration: Bacillus subtilis #10707, agar dilution method at pH 7.0; for MIC: Bacillus subtilis, pH 7, read-out: Minimum growth inhibitory concentration
Description: (§1) Minimum growth inhibitory concentration (μg/ml)
(§2) by agar dilution method at pH 7.0

[2] = system: Escherichia coli ATCC 26; assay: as above; assay type: cell-based; conditions: for Minimum growth inhibitory concentration: Escherichia coli ATCC 26, agar dilution method at pH 7.0; for MIC: Escherichia coli, ATCC26, pH 7, read-out: Minimum growth inhibitory concentration
Description: as §1, §2

[3] = system: Klebsiella pneumoniae ATCC 10031; assay: as above; assay type: cell-based; conditions: for Minimum growth inhibitory concentration: Klebsiella pneumoniae ATCC 10031, agar dilution method at pH 7.0
Description: as §1, §2

[4] = system: Proteus vulgaris ATCC 6897; assay: as above; assay type: cell-based; conditions: for Minimum growth inhibitory concentration: Proteus vulgaris ATCC 6897; for MIC: Proteus vulgaris
Description: as §1, §2

[5] = system: Pseudomonas cepacia ATCC 25608; assay: as above; assay type: cell-based; conditions: for Minimum growth inhibitory concentration: Pseudomonas cepacia ATCC 25608, agar dilution method at pH 7.0; for MIC: Burkholderia cepacia, ATCC25608, pH 7, read-out: Minimum growth inhibitory concentration
Description: as §1, §2

[6] = system: Serratia marcescens ATCC 4003; assay: as above; assay type: cell-based; conditions: for Minimum growth inhibitory concentration: Serratia marcescens ATCC 4003, agar dilution method at pH 7.0; for MIC: Serratia marcescens, ATCC4003, pH 7, read-out: Minimum growth inhibitory concentration
Description: as §1, §2

[7] = system: Shigella sonnei ATCC 9290; assay: as above; assay type: cell-based; conditions: for Minimum growth inhibitory concentration: Shigella sonnei ATCC 9290; for MIC: Shigella sonnei
Description: as §1, §2

[8] = system: Staphylococcus aureus ATCC 6538P; assay: as above; assay type: cell-based; conditions: for Minimum growth inhibitory concentration: Staphylococcus aureus ATCC 6538P; for MIC: Staphylococcus aureus, ATCC6538P
Description: as §1, §2

[9] = system: Salmonella typhosa ATCC 9992; assay: as above; assay type: cell-based; conditions: for Minimum growth inhibitory concentration: Salmonella typhosa ATCC 9992, agar dilution method at pH 7.0
[10] = LD50 (mouse, ip.); assay type: in vivo; conditions: in vivo, ip
Description: (§3) | LD50 (mouse, ip.) (mg/kg)

[11] = system: various microorganisms; assay: Growth inhibition of various microorganisms / antibacterial activity (in words); assay type: cell-based; conditions: statement in words
Description: as §1, §2

[12] = system: mouse; assay: LD50 (mouse, ip.); assay type: in vivo
Description: as §3

[13] = agar dilution method at pH 7.0, listed as Vb-1
[14] = agar dilution method at pH 7.0, listed as M-B
[15] = agar dilution method at pH 7.0, listed as M-D

COC1=C(C)C(=O)C2=C(C1=O)C(COC(N)=O)C1(O)C3C(CN21)N3C (stereo not drawn) [9-epi-mitomycin B]
Minimum growth inhibitory concentration ([1]; listed as Vb-1): < 0.024 µg/mL | Minimum growth inhibitory concentration ([2]; listed as Vb-1): 12.5 µg/mL | Minimum growth inhibitory concentration ([3]; listed as Vb-1): < 0.024 µg/mL | Minimum growth inhibitory concentration [4, 13]: 0.049 µg/mL | Minimum growth inhibitory concentration ([5]; listed as Vb-1): 25 µg/mL | Minimum growth inhibitory concentration ([6]; listed as Vb-1): 3.1 µg/mL | Minimum growth inhibitory concentration [7, 13]: 6.3 µg/mL | Minimum growth inhibitory concentration [8, 13]: 0.049 µg/mL | Minimum growth inhibitory concentration ([9]; listed as Vb-1): 6.3 µg/mL | LD50 [10]: 7.5 mg/kg | inhibiting activity against the growth of various microorganisms / antibacterial activity [11]: high inhibiting activity

CC1=C(N)C(=O)C2=C(C1=O)N1CC3C(N3C)C1(O)C2COC(N)=O (stereo not drawn) [9-epi-mitomycin D]
MIC [1]: 6.3 µg/mL (≈ 18.8 µM) | Minimum growth inhibitory concentration ([3]; listed as Va-1): 3.1 µg/mL | MIC ([4]; ATCC6897, pH 7, read-out: Minimum growth inhibitory concentration, Proteus vulgaris ATCC 6897, agar dilution method at pH 7.0): 12.5 µg/mL (≈ 37.4 µM) | MIC [5]: > 50 µg/mL | MIC [6]: > 50 µg/mL | MIC ([7]; ATCC9290, pH 7, read-out: Minimum growth inhibitory concentration, Shigella sonnei ATCC 9290, agar dilution method at pH 7.0): > 50 µg/mL | MIC ([8]; pH 7, read-out: Minimum growth inhibitory concentration, Staphylococcus aureus ATCC 6538P, agar dilution method at pH 7.0): 25 µg/mL (≈ 74.8 µM) | MIC ([9]; Salmonella enterica, pH 7, read-out: Minimum growth inhibitory concentration): > 50 µg/mL | LD50 [12]: 150 mg/kg | inhibiting activity against the growth of various microorganisms / antibacterial activity [11]: high inhibiting activity

COC1=C(C)C(=O)C2=C(C1=O)C(COC(N)=O)C1(O)C3C(CN21)N3C (centres unmarked) [mitomycin B, Mitomycin B]
Minimum growth inhibitory concentration ([1]; listed as M-B): 0.020 µg/mL | Minimum growth inhibitory concentration ([2]; listed as M-B): > 10 µg/mL | Minimum growth inhibitory concentration ([3]; listed as M-B): 0.16 µg/mL | Minimum growth inhibitory concentration [4, 14]: 0.078 µg/mL | Minimum growth inhibitory concentration ([5]; listed as M-B): 10 µg/mL | Minimum growth inhibitory concentration ([6]; listed as M-B): 2.5 µg/mL | Minimum growth inhibitory concentration [7, 14]: 5.0 µg/mL | Minimum growth inhibitory concentration [8, 14]: 0.039 µg/mL | Minimum growth inhibitory concentration ([9]; listed as M-B): 10.0 µg/mL | LD50 [12]: 4.5 mg/kg

CO[C@@]12[C@H](COC(N)=O)C3=C(C(=O)C(C)=C(N)C3=O)N1C[C@@H]1N[C@@H]12 [mitomycin C, Mitomycin C]
MIC [1]: 0.02 µg/mL (≈ 0.0598 µM) | MIC [2]: 10 µg/mL (≈ 29.9 µM) | MIC ([3]; Klebsiella pneumoniae, ATCC10031, pH 7, read-out: Minimum growth inhibitory concentration): 0.0098 µg/mL (≈ 0.0293 µM) | MIC ([4]; ATCC6897, pH 7, read-out: Minimum growth inhibitory concentration): 0.078 µg/mL (≈ 0.233 µM) | MIC [5]: 10 µg/mL (≈ 29.9 µM) | MIC [6]: 5 µg/mL (≈ 15 µM) | MIC ([7]; ATCC9290, pH 7, read-out: Minimum growth inhibitory concentration): 5 µg/mL (≈ 15 µM) | MIC ([8]; pH 7, read-out: Minimum growth inhibitory concentration): 0.156 µg/mL (≈ 0.467 µM)

CC1=C(N)C(=O)C2=C(C1=O)N1CC3C(N3C)C1(O)C2COC(N)=O (centres unmarked) [mitomycin D, 7-amino-7-demethoxy mitomycin B]
Minimum growth inhibitory concentration [1]: 6.3 µg/mL | MIC [2]: > 50 µg/mL | Minimum growth inhibitory concentration ([3]; listed as M-D): 6.3 µg/mL | Minimum growth inhibitory concentration [4, 15]: 25 µg/mL | Minimum growth inhibitory concentration [7, 15]: 50 µg/mL | Minimum growth inhibitory concentration [8, 15]: 50 µg/mL | Minimum growth inhibitory concentration [9]: > 50 µg/mL | LD50 [12]: 430 mg/kg
